From patent US20240270762A1, “PENICILLIN-BINDING PROTEIN INHIBITORS” (priority 2021, published 2024)
Converted amounts (≈) assume the structure as drawn.

What was measured:
P. aeruginosa CDC-0110 = assay: microbe, parasite or virus in culture; format: cell-based; settings: Pseudomonas aeruginosa, CDC0110, read-out: Minimum inhibitory concentration, P. aeruginosa CDC-0110
P. aeruginosa CDC-0054 = assay: microbe, parasite or virus in culture; format: cell-based; settings: Pseudomonas aeruginosa, CDC0054, read-out: Minimum inhibitory concentration, P. aeruginosa CDC-0054
A. baumannii PBP1a = target: T1, A. baumannii PBP1a (Acinetobacter baumannii, UniProt A0ABX6CK30); assay: Bocillin-FL competition binding via gel filtration, A. baumannii PBP1a; settings: competition binding assay using Bocillin-FL via gel filtration; read-out: A. baumannii PBP1a Potency
T1 sequence (A0ABX6CK30 1-851): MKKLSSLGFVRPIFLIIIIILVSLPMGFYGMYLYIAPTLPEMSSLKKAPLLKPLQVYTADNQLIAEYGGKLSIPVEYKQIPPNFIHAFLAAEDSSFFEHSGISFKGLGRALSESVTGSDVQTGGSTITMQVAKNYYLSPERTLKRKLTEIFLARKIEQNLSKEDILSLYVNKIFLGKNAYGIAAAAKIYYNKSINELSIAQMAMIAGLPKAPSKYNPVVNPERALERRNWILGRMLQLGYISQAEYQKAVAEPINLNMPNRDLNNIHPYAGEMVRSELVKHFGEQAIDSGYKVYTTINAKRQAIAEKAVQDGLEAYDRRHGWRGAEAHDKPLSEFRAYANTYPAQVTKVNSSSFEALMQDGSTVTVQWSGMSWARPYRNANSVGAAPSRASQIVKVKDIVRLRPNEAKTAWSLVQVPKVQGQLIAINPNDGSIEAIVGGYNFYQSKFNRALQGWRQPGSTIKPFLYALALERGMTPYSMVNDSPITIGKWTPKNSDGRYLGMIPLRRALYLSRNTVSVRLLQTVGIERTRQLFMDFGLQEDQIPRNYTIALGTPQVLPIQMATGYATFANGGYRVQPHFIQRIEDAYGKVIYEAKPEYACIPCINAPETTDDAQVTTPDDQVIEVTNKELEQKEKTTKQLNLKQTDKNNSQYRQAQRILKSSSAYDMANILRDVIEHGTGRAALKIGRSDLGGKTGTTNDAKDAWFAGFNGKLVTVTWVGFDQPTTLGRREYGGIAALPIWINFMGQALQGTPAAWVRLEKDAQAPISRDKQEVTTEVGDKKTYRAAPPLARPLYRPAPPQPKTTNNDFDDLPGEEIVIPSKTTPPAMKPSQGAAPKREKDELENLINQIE
Summary of the method: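 Enzyme was pre-incubated with rising inhibitor concentrations, then Bocillin-FL was added and incubated 15 minutes more. Bound probe was separated by gel filtration and fluorescence read. EC50 came from fitting fraction of PBP labelled versus inhibitor concentration to a Hill equation with ymin, ymax and n.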

[1] = target: T2, PBP3 from Pseudomonas aeruginosa (PAO1) (Pseudomonas aeruginosa, UniProt G3XD46); assay: Bocillin-FL fluorescence polarization competition binding, P. aeruginosa PBP3; settings: Binding affinity to P. aeruginosa PBP3; fluorescence polarization competition binding assay using Bocillin-FL; read-out: P. aeruginosa PBP3 Potency
T2 construct: made in house
Summary of the method: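 Purified PBPs pre-incubated with inhibitor (E. coli PBP3 1.5 μM, 30 min; P. aeruginosa PBP3 0.75 μM, A. baumannii PBP1a 1 μM and PBP3 0.2 μM, 15 min), then Bocillin-FL 0.1 μM (0.05 μM for PBP1a) added; FP read up to 60 min. EC50 = concentration halving bound Bocillin-FL.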

A. baumannii CDC-0083 = assay: microbe, parasite or virus in culture; format: cell-based; settings: Acinetobacter baumannii, CDC0083, read-out: MIC, A. baumannii CDC-0083

T2 sequence (G3XD46 whole entry): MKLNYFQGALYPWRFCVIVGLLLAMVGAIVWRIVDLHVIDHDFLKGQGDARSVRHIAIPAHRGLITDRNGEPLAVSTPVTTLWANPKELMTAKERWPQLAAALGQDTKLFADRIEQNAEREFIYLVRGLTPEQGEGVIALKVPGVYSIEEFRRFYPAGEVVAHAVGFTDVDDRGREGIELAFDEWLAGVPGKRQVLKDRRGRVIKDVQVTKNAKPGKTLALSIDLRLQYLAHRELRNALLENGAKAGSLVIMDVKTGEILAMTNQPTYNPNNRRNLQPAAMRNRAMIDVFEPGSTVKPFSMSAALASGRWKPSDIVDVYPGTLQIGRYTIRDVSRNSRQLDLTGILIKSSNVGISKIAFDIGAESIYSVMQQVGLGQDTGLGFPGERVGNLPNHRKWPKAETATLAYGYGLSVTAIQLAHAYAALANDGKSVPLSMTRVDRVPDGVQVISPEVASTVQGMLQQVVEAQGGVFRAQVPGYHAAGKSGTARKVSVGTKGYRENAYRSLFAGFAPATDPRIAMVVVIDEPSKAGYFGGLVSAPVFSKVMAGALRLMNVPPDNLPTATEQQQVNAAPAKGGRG

O=C(NCCCN1CCN(C(=O)NC(C(=O)N[C@H]2Cc3ccc(F)c(C(=O)O)c3OB2O)c2cc(F)c(O)c(O)c2Cl)C(=O)C1=O)c1ccncc1F (stereo partly drawn) [Example 400, (3R)-3-(2-(2-chloro-5-fluoro-3,4-dihydroxyphenyl)-2-(4-(3-(3-fluoroisonicotinamido)propyl)-2,3-dioxopiperazine-1-carboxamido)acetamido)-7-fluoro-2-hydroxy-3,4-dihydro-2H-benzo[e][1,2]oxaborinine-8-carboxylic acid]
MIC (P. aeruginosa CDC-0110): < 1 µg/mL
MIC (P. aeruginosa CDC-0054): < 1 µg/mL
EC50 (A. baumannii PBP1a): 10 to 50 µM
IC50 [1]: < 10 µM
MIC (A. baumannii CDC-0083): 2 to 4 µg/mL (≈ 2.62 to 5.24 µM)

O=C(NCCCN1CCN(C(=O)NC(C(=O)N[C@H]2Cc3ccc(F)c(C(=O)O)c3OB2O)c2cc(F)c(O)c(O)c2Cl)C(=O)C1=O)c1c(F)cncc1F (stereo partly drawn) [Example 402, (3R)-3-(2-(2-chloro-5-fluoro-3,4-dihydroxyphenyl)-2-(4-(3-(3,5-difluoroisonicotinamido)propyl)-2,3-dioxopiperazine-1-carboxamido)acetamido)-7-fluoro-2-hydroxy-3,4-dihydro-2H-benzo[e][1,2]oxaborinine-8-carboxylic acid]
MIC (P. aeruginosa CDC-0110): < 1 µg/mL
MIC (P. aeruginosa CDC-0054): < 1 µg/mL
EC50 (A. baumannii PBP1a): < 10 µM
IC50 [1]: < 10 µM
MIC (A. baumannii CDC-0083): 2 to 4 µg/mL (≈ 2.56 to 5.12 µM)

O=C(NCCCN1CCN(C(=O)NC(C(=O)N[C@H]2Cc3ccc(F)c(C(=O)O)c3OB2O)c2cc(F)c(O)c(O)c2Cl)C(=O)C1=O)c1c(F)cncc1Cl (stereo partly drawn) [Example 403, (3R)-3-(2-(2-chloro-5-fluoro-3,4-dihydroxyphenyl)-2-(4-(3-(3-chloro-5-fluoroisonicotinamido)propyl)-2,3-dioxopiperazine-1-carboxamido)acetamido)-7-fluoro-2-hydroxy-3,4-dihydro-2H-benzo[e][1,2]oxaborinine-8-carboxylic acid]
MIC (P. aeruginosa CDC-0110): < 1 µg/mL
MIC (P. aeruginosa CDC-0054): < 1 µg/mL
EC50 (A. baumannii PBP1a): 10 to 50 µM
IC50 [1]: < 10 µM
MIC (A. baumannii CDC-0083): 2 to 4 µg/mL (≈ 2.51 to 5.02 µM)

O=C(NCCCN1CCN(C(=O)NC(C(=O)N[C@H]2Cc3ccc(F)c(C(=O)O)c3OB2O)c2cc(F)c(O)c(O)c2Cl)C(=O)C1=O)c1cc(F)c(F)c(O)c1F (stereo partly drawn) [Example 404, (3R)-3-(2-(2-chloro-5-fluoro-3,4-dihydroxyphenyl)-2-(2,3-dioxo-4-(3-(2,4,5-trifluoro-3-hydroxybenzamido)propyl)piperazine-1-carboxamido)acetamido)-7-fluoro-2-hydroxy-3,4-dihydro-2H-benzo[e][1,2]oxaborinine-8-carboxylic acid]
MIC (P. aeruginosa CDC-0110): < 1 µg/mL
MIC (P. aeruginosa CDC-0054): < 1 µg/mL
EC50 (A. baumannii PBP1a): < 10 µM
IC50 [1]: < 10 µM
MIC (A. baumannii CDC-0083): > 128 µg/mL

O=C(NCCCN1CCN(C(=O)NC(C(=O)N[C@H]2Cc3ccc(F)c(C(=O)O)c3OB2O)c2cc(F)c(O)c(O)c2Cl)C(=O)C1=O)c1cccc(O)c1F (stereo partly drawn) [Example 406, (3R)-3-(2-(2-chloro-5-fluoro-3,4-dihydroxyphenyl)-2-(4.-(3-(2-fluoro-3-hydroxybenzamido)propyl)-2,3-dioxopiperazine-1-carboxamido)acetamido)-7-fluoro-2-hydroxy-3,4-dihydro-2H-benzo[e][1,2]oxaborinine-8-carboxylic acid]
MIC (P. aeruginosa CDC-0110): < 1 µg/mL
MIC (P. aeruginosa CDC-0054): < 1 µg/mL
EC50 (A. baumannii PBP1a): < 10 µM
IC50 [1]: < 10 µM
MIC (A. baumannii CDC-0083): < 1 µg/mL

O=C(NCCCN1CCN(C(=O)NC(C(=O)N[C@H]2Cc3ccc(F)c(C(=O)O)c3OB2O)c2cc(F)c(O)c(O)c2Cl)C(=O)C1=O)c1cc(O)ccc1F (stereo partly drawn) [Example 407, (3R)-3-(2-(2-chloro-5-fluoro-3,4-dihydroxyphenyl)-2-(4-(3-(2-fluoro-5-hydroxybenzamido)propyl)-2,3-dioxopiperazine-1-carboxamido)acetamido)-7-fluoro-2-hydroxy-3,4-dihydro-2H-benzo[e][1,2]oxaborinine-8-carboxylic acid]
MIC (P. aeruginosa CDC-0110): < 1 µg/mL
MIC (P. aeruginosa CDC-0054): < 1 µg/mL
EC50 (A. baumannii PBP1a): < 10 µM
IC50 [1]: < 10 µM
MIC (A. baumannii CDC-0083): < 1 µg/mL

O=C(NCCCN1CCN(C(=O)NC(C(=O)N[C@H]2Cc3ccc(F)c(C(=O)O)c3OB2O)c2cc(F)c(O)c(O)c2Cl)C(=O)C1=O)c1cc(O)ccc1Cl (stereo partly drawn) [Example 408, (3R)-3-(2-(2-chloro-5-fluoro-3,4-dihydroxyphenyl)-2-(4-(3-(2-chloro-5-hydroxybenzamido)propyl)-2,3-dioxopiperazine-1-carboxamido)acetamido)-7-fluoro-2-hydroxy-3,4-dihydro-2H-benzo[e][1,2]oxaborinine-8-carboxylic acid]
MIC (P. aeruginosa CDC-0110): < 1 µg/mL
MIC (P. aeruginosa CDC-0054): < 1 µg/mL
EC50 (A. baumannii PBP1a): < 10 µM
IC50 [1]: < 10 µM
MIC (A. baumannii CDC-0083): < 1 µg/mL

O=C(NCCCN1CCN(C(=O)NC(C(=O)N[C@H]2Cc3ccc(F)c(C(=O)O)c3OB2O)c2cc(F)c(O)c(O)c2Cl)C(=O)C1=O)c1ccc(F)c(O)c1 (stereo partly drawn) [Example 409, (3R)-3-(2-(2-chloro-5-fluoro-3,4-dihydroxyphenyl)-2-(4-(3-(4-fluoro-3-hydroxybenzamido)propyl)-2,3-dioxopiperazine-1-carboxamido)acetamido)-7-fluoro-2-hydroxy-3,4-dihydro-2H-benzo[e][1,2]oxaborinine-8-carboxylic acid]
MIC (P. aeruginosa CDC-0110): < 1 µg/mL
MIC (P. aeruginosa CDC-0054): < 1 µg/mL
EC50 (A. baumannii PBP1a): < 10 µM
IC50 [1]: < 10 µM
MIC (A. baumannii CDC-0083): < 1 µg/mL

O=C(NCCCN1CCN(C(=O)NC(C(=O)N[C@H]2Cc3ccc(F)c(C(=O)O)c3OB2O)c2cc(F)c(O)c(O)c2Cl)C(=O)C1=O)c1cc(O)cc(F)c1 (stereo partly drawn) [Example 410, (3R)-3-(2-(2-chloro-5-fluoro-3,4-dihydroxyphenyl)-2-(4-(3-(3-fluoro-5-hydroxybenzamido)propyl)-2,3-dioxopiperazine-1-carboxamido)acetamido)-7-fluoro-2-hydroxy-3,4-dihydro-2H-benzo[e][1,2]oxaborinine-8-carboxylic acid]
MIC (P. aeruginosa CDC-0110): < 1 µg/mL
MIC (P. aeruginosa CDC-0054): < 1 µg/mL
EC50 (A. baumannii PBP1a): < 10 µM
IC50 [1]: < 10 µM
MIC (A. baumannii CDC-0083): < 1 µg/mL

O=C(NCCCN1CCN(C(=O)NC(C(=O)N[C@H]2Cc3ccc(F)c(C(=O)O)c3OB2O)c2cc(F)c(O)c(O)c2Cl)C(=O)C1=O)c1ccc(F)c(O)c1F (stereo partly drawn) [Example 411, (3R)-3-(2-(2-chloro-5-fluoro-3,4-dihydroxyphenyl)-2-(4-(3-(2,4-difluoro-3-hydroxybenzamido)propyl)-2,3-dioxopiperazine-1-carboxamido)acetamido)-7-fluoro-2-hydroxy-3,4-dihydro-2H-benzo[e][1,2]oxaborinine-8-carboxylic acid]
MIC (P. aeruginosa CDC-0110): < 1 µg/mL
MIC (P. aeruginosa CDC-0054): < 1 µg/mL
EC50 (A. baumannii PBP1a): < 10 µM
IC50 [1]: < 10 µM
MIC (A. baumannii CDC-0083): 8 to 16 µg/mL (≈ 10.1 to 20.1 µM)

O=C(NCCCN1CCN(C(=O)NC(C(=O)N[C@H]2Cc3ccc(F)c(C(=O)O)c3OB2O)c2cc(F)c(O)c(O)c2Cl)C(=O)C1=O)c1ccc(F)c(O)c1Cl (stereo partly drawn) [Example 412, (3R)-3-(2-(4-(3-(2-chloro-4-fluoro-3-hydroxybenzamido)propyl)-2,3-dioxopiperazine-1-carboxamido)-2-(2-chloro-5-fluoro-3,4-dihydroxyphenyl)acetamido)-7-fluoro-2-hydroxy-3,4-dihydro-2H-benzo[e][1,2]oxaborinine-8-carboxylic acid]
MIC (P. aeruginosa CDC-0110): < 1 µg/mL
MIC (P. aeruginosa CDC-0054): < 1 µg/mL
EC50 (A. baumannii PBP1a): < 10 µM
IC50 [1]: < 10 µM
MIC (A. baumannii CDC-0083): 8 to 16 µg/mL (≈ 9.85 to 19.7 µM)

O=C(NCCCN1CCN(C(=O)NC(C(=O)N[C@H]2Cc3ccc(F)c(C(=O)O)c3OB2O)c2cc(F)c(O)c(O)c2Cl)C(=O)C1=O)c1c(F)ccc(O)c1F (stereo partly drawn) [Example 413, (3R)-3-(2-(2-chloro-5-fluoro-3,4-dihydroxyphenyl)-2-(4-(3-(2,6-difluoro-3-hydroxybenzamido)propyl)-2,3-dioxopiperazine-1-carboxamido)acetamido)-7-fluoro-2-hydroxy-3,4-dihydro-2H-benzo[e][1,2]oxaborinine-8-carboxylic acid]
MIC (P. aeruginosa CDC-0110): < 1 µg/mL
MIC (P. aeruginosa CDC-0054): < 1 µg/mL
EC50 (A. baumannii PBP1a): < 10 µM
IC50 [1]: < 10 µM
MIC (A. baumannii CDC-0083): 2 to 4 µg/mL (≈ 2.51 to 5.03 µM)
